Measurements as given in patent publication US20170273921A1, “3,5,N-TRIHYDROXY-ALKANAMIDE OR 3,5,N-TRIHYDROXY-6-ALKENAMIDE DERIVATIVE ALONE OR IN COMBINATION WITH CHEMOTHERAPEUTIC AGENT FOR TREATING CANCER” (National Taiwan University, priority 2014, published 2017).
Read-outs that look alike come from different tables or passages of the source.

Columns and labels:
[1] = system: HT29-Luciferase expressing cells; test: Experimental colorectal cancer metastasis to the liver (HT29-Luciferase cells injected into spleen, IVIS imaging); type: in vivo, NOD/SCID mice; details: single agent; JMF3086 oral 5 days/week, oxaliplatin or irinotecan i.p. once a week, two weeks; FIGS. 2B and 2C
Procedure: Seven-week-old female NOD/SCID mice were obtained from the National Laboratory Animal Center. The mice were anesthetized by continuous flow of 2-3% isoflurane. To generate liver metastases derived from human colorectal cancer cells in mouse models, HT29-Luciferase expressing cells (1×10^6) were suspended in 100 μl PBS and injected into the spleen of mice. After one-week recovery, the mice were randomized into vehicle and treatment group. […] Mice were then given endotoxon-free luciferse substrate and photographed by IVIS imaging system (Xenogen) once a week. Tumors in spleen and liver were collected and weighed after sacrificed.

[2] = system: A549-Luc cells; test: Orthotopic lung cancer model (A549-Luc, IVIS imaging); type: in vivo, NOD/SCID mice; details: single agent; JMF3086 oral 5 days/week or cisplatin i.p. once a week, two weeks; FIG. 3B
Procedure: In this Example, we use A549 cells [non-small cell lung cancer cell line with KRAS mutations (EGFR wild-type)] to establish the orthotopic lung cancer models. Seven-week-old male NOD/SCID mice were anesthetized by continuous flow of 2-3% isoflurane. A549-Luc cells (2×10^6) suspended in 40 μl of PBS were injected percutaneously into the right lung of the mice using 500 μl Gas-Tight syringes with 27G top winged infusion set. These mice were then given endotoxon-free luciferse substrate and photographed using IVIS-200 imaging system once a week. When lung tumor nodules were detected, the mice were oral administration of JMF3086 (5 days/week), intraperitoneally administered cisplatin (once a week) or a combination of JM3086 and cisplatin for additional two weeks (FIG. 3A).

[3] = system: AOM/DSS-induced CRC; test: Animal model of AOM/DSS-induced CRC; type: in vivo, male C57BL/6 mice; details: single agent; JMF3086 25 mg/kg oral 5 days/week or oxaliplatin 5 mg/kg i.p. once a week, two weeks; FIG. 1B
Procedure: FIGS. 1A and 1B show the effect of a 3,5,N-trihydroxy-alkanamide derivative, JMF3086, combined with oxaliplatin on colitis-induced colorectal cancer in vivo. Mice were intraperitoneally injected with AOM (12.5 mg/kg) and maintained for 7 days, then subjected to 3 cycles of DSS treatment (1 cycle representing 5 days of 3.5% DSS followed by 14 days of H2O). […] Scale bars: 1 mm **P<0.01 versus vehicle.
AOM in conjunction with the additional DSS inflammatory stimulus results in tumor development that is restricted to the colon in mice (11, 12). This model is widely utilized to recapitulate human colorectal cancer because it results in inflammation and ulceration of the entire colon, similar to what is observed in patients (12). CRC was induced in male C57BL/6 mice via the intraperitoneal injection of AOM (12.5 mg/kg) while the mice were maintained with a regular diet and drinking water for 7 days and then subjecting to 3 cycles of DSS treatment, with each cycle consisting of the administration of 3.5% DSS for 5 days followed by a 14-day recovery period with regular water (FIG. 1A). […]

[4] = system: various human cancer cell lines; test: Cell viability by MTT cell proliferation assay; type: cell-based
Procedure: Human […] cancer cells (Hela) and breast cancer cells (MD-MBA-231, MCF7) were seeded at 3000 cells/well in 96-well plates and maintained for 14-16 hours, then treated with JMF3086 or gemcitabine or both. After 72 hours, cells were washed with PBS then added medium containing MTT reagent (Sigma) at a final concentration of 0.5 mg/ml for 4 hours. Then, the medium was replaced with 200 μl of DMSO for 30 minutes, and using an ELISA reader (570 nm) to get the absorbance density values. The 50% of inhibition concentration (IC50) of death cells was calculated.
Effect of three 3,5,N-trihydroxy-alkanamide derivatives, JMF3086, (3R,5R)-7-{(1S,2S,6R,8S,8aR)-hexahydro-2,6-dimethyl-8-[2-dimethylbutyryloxy]naphthalenyl}-3,5-dihydroxy-N-hydroxyheptanamide (also referred to as JMF3171), and (3R,5R)-7-{[2-(4-fluoro-phenyl)-5isopropyl-3-phenyl-4-phenylcarbamoylpyrrol-1-yl]-3,5-dihydroxy-N-hydroxyheptanamide (also referred to as JMF3173) and the corresponding statins on the cell viability of various human cancer cell lines was determined by cell proliferation assay as described in Example 4. Specifically, cancer cells were treated with various concentrations of test compounds for 72 hours, and cell viability was measured by MTT assay. The half maximal inhibitory concentration (IC50) values for individual cell line were calculated.

[5] = system: bindings of acetyl-H3K27, CBP, HDAC1 and HDAC3 to promoter; test: Quantitative ChIP (qChIP) assay of promoter binding in HCT116 cells; type: cell-based, human; details: FIG. 5D
Procedure: FIGS. 5A to 5D show genome-wide analysis of target genes in 3,5,N-trihydroxy-alkanamide derivative-treated colorectal cancer cells. […] Ingenuity Pathways Analysis (IPA) analysis predicted that the genes associated with apoptosis were regulated by NR3C1. P=4.30E-37. […] The molecular network has a P-score (−log10 (p-value)) of 48. […] Data were analyzed by the Q-PCR and plotted as percent (%) of input DNA. *P<0.05, **P<0.01 versus basal, two-sided Student t test.
(§1) Colorectal cancer cells (HCT116) were treated with 30 μM JMF3086 for 24 hours, ChIP assays using control Rabbit IgG (sc-2027; Santa Cruz) or anti-H3K27-ac antibody (#4353; Cell Signaling) were performed as previously described (14).
To further investigate these differential effects of JMF3086, the bindings of acetyl-H3K27, CBP, HDAC1 and HDAC3 to promoter were examined by quantitative ChIP (qChIP) assays. JMF3086 reduced the bindings of acetyl-H3K27 and CBP to the promoters of TNF-α, CD166, COX-2, BCL2, CXCL1, CXCL2, EpCAM, CD44, Cyclin D1 and MCL1, but increased those of HDAC1 and HDAC3 to the promoters (FIG. 5D). In contrast, JMF3086 increased the bindings of acetyl-H3K27 and CBP to the promoters of TIMP3, BMP2 and p53 but decreased those of HDAC1 and HDAC3 to their promoters (FIG. 5D).

[6] = system: angiogenesis (neovessel formation in matrigel plugs); test: Subcutaneous matrigel plug angiogenesis assay with conditioned medium of hypoxic HCT116 cells; type: in vivo, nude mice; details: HCT116 treated with 30 μM JMF3086 for 20 hours, hypoxia 4 hours; plugs after 14 days; FIG. 2F
Procedure: Angiogenesis is an essential step of tumor growth and metastasis (13). To determining the effect of JMF3086 on angiogenesis, HCT116 cells treated with 30 μM JMF3086 for 20 hours were exposed to hypoxia for 4 hours, then conditional medium was collected and subcutaneous matrigel plug assay was conducted by injecting of 75 μl conditional medium mixed with 425 μl matrigel and 50 U heparin/ml into nude mice (5 mice/group). Mice were sacrificed and dissected after 14 days. Matrigel plug retrieved from mice were photographed. Quantification of neovessel formation in matrigel plugs were estimated using Drabkin reagent kit 525.

[7] = system: colorectal cancer cells (HCT116); test: Experimental colorectal cancer metastasis to the lung (HCT116 injected via tail vein); type: in vivo, nude mice; details: JMF3086 100 mg/kg; FIG. 2E
Procedure: Besides, to examine the anti-metastatic activity of JMF3086, colorectal cancer cells (HCT116) were intravenously injected into nude mice via the tail vein (FIG. 2D). JMF3086 (100 mg/kg) reduced lung tumor nodules by macroscopic observation (FIG. 2E), indicating its inhibition on lung metastasis.

[8] = system: H3K27-Ac binding to gene promoters in HCT116; test: ChIP-on-chip assay of H3K27-Ac in HCT116 cells; type: cell-based, human
Procedure: as §1
ChIP-on-chip assays were performed in the Microarray and Gene Expression Analysis Core Facility of the National Yang-Ming University VGH Genome Research Center in Taiwan using the SurePrint G3 Human Promoter 1×1M Kit (Agilent Technologies) after DNA was further purified through phenol/chloroform/isoamyl alcohol extraction and ethanol precipitation. Genes with two-fold down-regulation or up-regulation of H3K27-Ac in log-ratio after JMF 3086 treatment were regarded as significance.

[9] = HCT116, 30 μM, 24 hours, FIG. 5C

`CCC(C)C(=O)O[C@H]1C[C@@H](C)C=C2C=C[C@H](C)[C@H](CC[C@@H](O)C[C@@H](O)CC(=O)NO)[C@H]21` (stereo partly drawn) [JMF3086, (3R,5R)-7-{(1S,2S,6R,8S,8aR)-hexahydro-2,6-dimethyl-8-[2-methylbutyryloxy]naphthalenyl}-3,5-dihydroxy-N-hydroxyheptanamide] was tested, and the “liver metastasis (luciferase activity, IVIS)” value (“liver metastasis” below) [1] was “modestly inhibited”, the “lung cancer development (luciferase activity, IVIS)” value [2] was “ineffectively inhibited” and the “number of tumors and sizes” value [3] was “modestly reduced”. For the same molecule, the “cytotoxicity / cell viability” value [4] was “cytotoxic”, the “bindings of HDAC1 and HDAC3 to the promoters of TIMP3, BMP2 and p53” value [5] was “decreased” and the “bindings of HDAC1 and HDAC3 to the promoters of TNF-α, CD166, COX-2, BCL2, CXCL1, CXCL2, EpCAM, CD44, Cyclin D1 and MCL1” value [5] was “increased”. For the same molecule, the “bindings of acetyl-H3K27 and CBP to the promoters of TIMP3, BMP2 and p53” value [5] was “increased”, the “bindings of acetyl-H3K27 and CBP to the promoters of TNF-α, CD166, COX-2, BCL2, CXCL1, CXCL2, EpCAM, CD44, Cyclin D1 and MCL1” value [5] was “reduced” and the “angiogenesis induced by conditioned medium from HCT116 cells under hypoxia (matrigel plug)” value [6] was “inhibited”. The “lung tumor nodules by macroscopic observation” value [7] was “reduced”, the “number of genes with altered binding of H3K27-acetylation” value ([8]; HCT116, 30 μM JMF3086, 24 hours) was “more than 10,000 genes” and the “mRNA expression of genes of inflammation and proliferation, stemness of cancer, and anti-apoptosis” value ([8]; HCT116, 30 μM, 24 hours) was “reduced”. For the same molecule, the “mRNA expression of tumor suppressors” value ([8]; HCT116, 30 μM, 24 hours) was “increased”, the “binding of H3K27-Ac to the gene promoters of inflammation and proliferation, stemness of cancer, and anti-apoptosis” value [8, 9] was “inhibited” and the “binding of H3K27-Ac to the gene promoters of tumor suppressors” value [8, 9] was “increased”.
For `CCC(C)(C)C(=O)O[C@H]1C[C@@H](C)C=C2C=C[C@H](C)[C@H](CC[C@@H](O)C[C@@H](O)CC(=O)NO)[C@H]21` [JMF3171, (3R,5R)-7-{(1S,2S,6R,8S,8aR)-hexahydro-2,6-dimethyl-8-[2-dimethylbutyryloxy]naphthalenyl}-3,5-dihydroxy-N-hydroxyheptanamide], the “cytotoxicity / cell viability” value [4] was “cytotoxic”.
For `CC(C)c1c(C(=O)Nc2ccccc2)c(-c2ccccc2)c(-c2ccc(F)cc2)n1CC[C@@H](O)C[C@@H](O)CC(=O)NO` [JMF3173], the “cytotoxicity / cell viability” value ([4]; CRC and various cancer cell lines, 72 hours, MTT, FIG. 4) was “cytotoxic”.
With `N.N.[Cl][Pt][Cl]` [cisplatin, reference compound] the “lung cancer development (luciferase activity, IVIS)” value [2] was “ineffectively inhibited”.
With `CCc1c2c(nc3ccc(OC(=O)N4CCC(N5CCCCC5)CC4)cc13)-c1cc3c(c(=O)n1C2)COC(=O)[C@]3(O)CC` [irinotecan] the “liver metastasis” value [1] was “modestly inhibited”.
With `O=C1[O][Pt]2([NH][C@@H]3CCCC[C@H]3[NH]2)[O]C1=O` [oxaliplatin, reference compound] the “liver metastasis” value [1] was “modestly inhibited” and the “number of tumors and sizes” value [3] was “modestly reduced”.
